Measurements published in article PMC11073699, “Odorant receptors for floral- and plant-derived volatiles in the yellow fever mosquito, Aedes aegypti (Diptera: Culicidae)” (PLOS ONE, 2024).
“And” between values parts separate entries of the source, which are not always exact repeats. Equal entries are not always repeated.

Legend:
Format in all cases: cell-based
AaegOR10 = molecular target: T1, AaegOR10 (Aedes aegypti, UniProt Q177X3); assay: Two-electrode voltage clamp of Xenopus laevis oocytes expressing AaegOR10/Orco (blends, unitary compounds, concentration-response); settings: unitary compounds of Indoles 1; individual oocytes 1-9 (replicates)
T1 sequence (Q177X3 1-375): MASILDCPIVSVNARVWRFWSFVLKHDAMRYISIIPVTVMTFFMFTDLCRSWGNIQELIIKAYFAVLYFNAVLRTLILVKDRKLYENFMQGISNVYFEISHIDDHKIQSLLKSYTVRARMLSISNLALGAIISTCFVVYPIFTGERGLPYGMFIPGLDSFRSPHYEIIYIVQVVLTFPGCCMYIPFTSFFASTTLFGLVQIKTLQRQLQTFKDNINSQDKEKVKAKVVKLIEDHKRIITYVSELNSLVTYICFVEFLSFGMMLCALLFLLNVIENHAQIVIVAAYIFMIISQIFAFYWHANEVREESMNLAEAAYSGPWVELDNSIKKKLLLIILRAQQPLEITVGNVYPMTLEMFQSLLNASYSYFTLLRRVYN
T1 sequence (Q178U6 1-478 partner): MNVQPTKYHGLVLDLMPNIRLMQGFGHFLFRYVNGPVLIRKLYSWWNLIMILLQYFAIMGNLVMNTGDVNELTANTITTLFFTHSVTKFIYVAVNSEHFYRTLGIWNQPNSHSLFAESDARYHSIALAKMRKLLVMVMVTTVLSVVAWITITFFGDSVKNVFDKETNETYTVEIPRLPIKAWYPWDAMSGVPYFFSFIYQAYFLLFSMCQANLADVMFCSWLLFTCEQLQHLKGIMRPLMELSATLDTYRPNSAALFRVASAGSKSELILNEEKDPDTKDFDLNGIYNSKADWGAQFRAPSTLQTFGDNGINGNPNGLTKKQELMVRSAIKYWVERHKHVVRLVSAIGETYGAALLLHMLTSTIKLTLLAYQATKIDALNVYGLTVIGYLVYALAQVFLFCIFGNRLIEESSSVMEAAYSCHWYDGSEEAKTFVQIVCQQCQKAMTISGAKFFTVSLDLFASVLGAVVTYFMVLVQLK
Excerpt: (§1) The coding regions of ten AaegOR genes of interest (S3 File) and AaegOrco were synthesized by Twist Bioscience (San Francisco, CA, USA) and cloned into the pENTR plasmid. The Gateway LR directional cloning system (Invitrogen Corp., Carlsbad, CA, USA) was utilized to subclone AaegOR coding regions into the pSP64t-RFA oocyte expression plasmid. Plasmids were purified using the GeneJet Plasmid Miniprep Kit (ThermoFisher Scientific, Waltham, MA, USA). Purified plasmids were sequenced in both directions to confirm coding regions.
(§2) Chemical compounds (S6 File) used in the deorphanization of AaegORs were purchased from Acros Organics (Morris, NJ, USA), Alfa Aesar (Ward Hill, MA, USA), and ThermoFisher Scientific (Waltham, MA, USA) at the highest purity available. Compounds were stored as 1M stocks in 100% DMSO. Serial dilutions of each compound were prepared in 10% DMSO and blended by chemical class.
(§3) pSP64t-RFA: AaegOR clones were linearized using Xbal, and cRNAs were synthesized using the mMESSAGE mMACHINE ® SP6 kit (Life Technologies, Carlsbad, CA, USA). Xenopus laevis stage V-VII oocytes purchased from Xenopus1 (Dexter, MI, USA) were stored at 18°C in Incubation medium (ND96 96 with 5% dialyzed horse serum, 50μg/mL gentamycin, 100μg/mL streptomycin, 100μg/mL penicillin, and 550μg/mL sodium pyruvate). 30nL of cRNA was injected into multiple oocytes using a microinjection syringe pump (World Precision Instruments, Sarasota, FL, USA) maintained at 18°C for 48–72 hrs. Odorant blends were perfused across individual oocytes for 10–15 seconds, held at a resting membrane potential of -80 mV using an OC-725C oocyte clamp (Warner Instruments, LLC, Hamden, CT, USA). Induced currents were measured indirectly using the two-electrode voltage clamp technique (TEVC). Following each stimulus, currents were allowed to return to baseline before further stimulation. Data was captured using the Digidata 1550 B digitizer and PClamp10 software (Molecular Devices, San Jose, CA, USA). Concentration-response curves were generated by perfusing unitary odorants over oocytes at increasing concentrations from [10^-3M] to [10^-9M]. Data were analyzed using GraphPad Prism 8 (GraphPad Software Inc., La Jolla, CA, USA). At least two biological replicates were conducted at each concentration and for each compound. Data for at least seven oocytes responding to each compound was analyzed (S7 File).

AaegOR13 = molecular target: T2, AaegOR13 (Aedes aegypti, UniProt Q16Z13); assay: Two-electrode voltage clamp of Xenopus laevis oocytes expressing AaegOR13/Orco (blends, unitary compounds, concentration-response); settings: unitary compounds; individual oocytes 1-7
T2 sequence (Q16Z13 1-389): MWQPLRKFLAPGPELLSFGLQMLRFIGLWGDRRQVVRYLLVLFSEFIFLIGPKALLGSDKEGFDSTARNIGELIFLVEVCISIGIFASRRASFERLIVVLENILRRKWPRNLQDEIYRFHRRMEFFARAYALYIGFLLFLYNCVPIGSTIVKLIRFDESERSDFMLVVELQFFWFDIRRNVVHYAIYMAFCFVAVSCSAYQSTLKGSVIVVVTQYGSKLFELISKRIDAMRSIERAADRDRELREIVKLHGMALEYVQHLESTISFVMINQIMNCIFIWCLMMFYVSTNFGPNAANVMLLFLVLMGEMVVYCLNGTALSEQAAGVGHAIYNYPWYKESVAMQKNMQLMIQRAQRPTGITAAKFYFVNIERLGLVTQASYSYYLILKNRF
T2 sequence (Q178U6 1-478 partner): T1 sequence (Q178U6 1-478 partner)
In short: (§4)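 Xenopus oocytes injected with cRNA for AaegOR plus Orco, kept 48–72 hrs at 18°C, clamped at -80 mV by TEVC. Odorant blends or single compounds (10% DMSO dilutions) perfused 10–15 s; concentration-response from 10^-3M to 10^-9M, ≥7 responding oocytes, ≥2 biological replicates.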

AaegOR55 = molecular target: T3, AaegOR55 (Aedes aegypti, UniProt Q16T12); assay: Two-electrode voltage clamp of Xenopus laevis oocytes expressing AaegOR55/Orco (blends, unitary compounds, concentration-response); settings: AaegOR55, compounds of blend Indoles 1
T3 sequence (Q16T12 10-392): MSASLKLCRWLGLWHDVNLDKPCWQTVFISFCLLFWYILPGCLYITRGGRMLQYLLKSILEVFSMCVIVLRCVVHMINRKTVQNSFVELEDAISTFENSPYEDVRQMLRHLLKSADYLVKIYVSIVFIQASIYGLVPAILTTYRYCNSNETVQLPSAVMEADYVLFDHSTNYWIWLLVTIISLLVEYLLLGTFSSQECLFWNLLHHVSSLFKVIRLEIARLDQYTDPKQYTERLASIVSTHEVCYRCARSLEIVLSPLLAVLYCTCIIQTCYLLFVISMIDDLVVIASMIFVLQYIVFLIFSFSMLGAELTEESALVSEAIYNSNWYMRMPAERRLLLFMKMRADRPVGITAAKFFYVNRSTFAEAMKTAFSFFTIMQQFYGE
T3 sequence (Q178U6 1-478 partner): T1 sequence (Q178U6 1-478 partner)
Excerpt: as §1, §2, §3

AaegOR15 = molecular target: T4, AaegOR15 (Aedes aegypti, UniProt A0A6B9QIR2); assay: Two-electrode voltage clamp of Xenopus laevis oocytes expressing AaegOR15/Orco (blends, unitary compounds, concentration-response); settings: unitary compounds of Alcohols 2; individual oocytes 1-10 (replicates)
T4 sequence (A0A6B9QIR2 1-390): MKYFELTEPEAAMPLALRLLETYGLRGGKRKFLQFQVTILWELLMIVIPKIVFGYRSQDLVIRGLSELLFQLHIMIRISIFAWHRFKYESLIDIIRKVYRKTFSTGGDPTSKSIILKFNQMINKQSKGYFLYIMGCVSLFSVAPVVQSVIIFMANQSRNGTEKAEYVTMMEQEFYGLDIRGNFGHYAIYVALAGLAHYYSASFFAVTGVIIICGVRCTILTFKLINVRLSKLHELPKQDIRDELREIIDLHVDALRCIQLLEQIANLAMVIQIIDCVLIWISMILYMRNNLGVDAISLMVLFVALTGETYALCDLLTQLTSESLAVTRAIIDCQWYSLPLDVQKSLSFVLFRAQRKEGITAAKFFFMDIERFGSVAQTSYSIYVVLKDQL
T4 sequence (Q178U6 1-478 partner): T1 sequence (Q178U6 1-478 partner)
In short: as §4

AaegOR28 = molecular target: T5, AaegOR28 (Aedes aegypti, UniProt Q0IGE1); assay: Two-electrode voltage clamp of Xenopus laevis oocytes expressing AaegOR28/Orco (blends, unitary compounds, concentration-response); settings: for Raw Data (Responses in nA), Alcohols 3 unitary compounds / Raw Data (Responses in nA), concentration-response: AaegOR28; for Raw Data (Responses in nA), Alcohols 3 unitary compounds: compounds of blend Alcohols 3, individual oocytes 1-10; for Raw Data (Responses in nA), concentration-response: individual oocytes 1-8
T5 sequence (Q0IGE1 1-394): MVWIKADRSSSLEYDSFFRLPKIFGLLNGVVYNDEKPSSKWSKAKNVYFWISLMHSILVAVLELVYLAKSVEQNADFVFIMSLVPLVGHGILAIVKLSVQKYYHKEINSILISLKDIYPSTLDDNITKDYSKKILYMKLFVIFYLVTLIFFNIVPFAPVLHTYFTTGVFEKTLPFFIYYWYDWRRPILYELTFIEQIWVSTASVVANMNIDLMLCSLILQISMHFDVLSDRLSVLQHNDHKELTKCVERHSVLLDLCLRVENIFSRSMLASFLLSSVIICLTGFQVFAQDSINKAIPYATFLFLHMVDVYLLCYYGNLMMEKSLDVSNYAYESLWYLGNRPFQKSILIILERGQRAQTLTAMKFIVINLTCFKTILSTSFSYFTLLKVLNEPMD
T5 sequence (Q178U6 1-478 partner): T1 sequence (Q178U6 1-478 partner)
Excerpt: as §1, §2, §3

Molecule: COC(=O)c1c[nH]c2ccccc12 [methyl indole-3-carboxylate]
- Raw response, unitary compounds of blend Indoles 1 (AaegOR10): 0.0 nA (6×) and 10.0 nA (2×) and 30.0 nA
- Raw data (Responses in nA), unitary compounds of Indoles 1, Alcohols 1, Alcohols 3 (AaegOR13): 0.0 nA and 20.0 nA and 15.0 nA (2×) and 10.0 nA (3×)

Molecule: COC(=O)c1c[nH]c2ccccc12 [methylindole-3-carboxylate]
- Normalized response, Average, Indoles 1 unitary compounds (AaegOR55; average of 7 oocytes): 5.2
- Raw Data (Responses in nA), Indoles 1 unitary compounds (AaegOR55; individual oocytes (Oocyte 1-7)): 20.0 nA and 10.0 nA (5×) and 15.0 nA
- Normalized response, Indoles 1 unitary compounds (AaegOR55; individual oocytes (Oocyte 1-7), normalized to the strongest compound per oocyte): 8.5 and 7.1 and 4.0 and 3.3 and 5.4 and 4.9 and 3.4

Molecule: CCC(C)(O)CCCC(C)C (stereo not shown) [tetrahydrolinalool, Tetrahydrolinalool]
- Raw data (Responses in nA), compounds of blend Alcohols 2 (AaegOR15): 0.0 nA (3×) and 20.0 nA (4×) and 40.0 nA and 10.0 nA and 5.0 nA
- Raw data (Responses in nA), unitary compounds of Indoles 1, Alcohols 1, Alcohols 3 (AaegOR13): 0.0 nA
- EC50 (AaegOR28; AaegOR28/Orco expressing oocytes, TEVC, concentration-response of normalized current): 44.1 µM
- Raw Data (Responses in nA), Alcohols 3 unitary compounds (AaegOR28): 30 nA (2×) and 25 nA and 35 nA and 20 nA (2×) and 50 nA and 40 nA and 45 nA and 90 nA
- Raw Data (Responses in nA), concentration-response (AaegOR28; concentration 1e-6): 5 nA (4×) and 0 nA (2×) and 10 nA and 20 nA
- Raw Data (Responses in nA), concentration-response (AaegOR28; concentration 5e-6): 30 nA and 10 nA (2×) and 20 nA (4×) and 50 nA
- Raw Data (Responses in nA), concentration-response (AaegOR28; concentration 1e-5): 40 nA (3×) and 30 nA (2×) and 50 nA and 45 nA and 95 nA
- Raw Data (Responses in nA), concentration-response (AaegOR28; concentration 5e-5): 150 nA and 200 nA and 70 nA and 230 nA and 220 nA and 90 nA and 180 nA and 260 nA
- Raw Data (Responses in nA), concentration-response (AaegOR28; concentration 0.0001): 290 nA and 320 nA and 140 nA and 330 nA and 400 nA and 100 nA and 220 nA and 310 nA
- Raw Data (Responses in nA), concentration-response (AaegOR28; concentration 0.0005): 380 nA and 530 nA and 180 nA and 400 nA and 480 nA and 105 nA and 230 nA and 340 nA
- Raw Data (Responses in nA), concentration-response (AaegOR28; concentration 0.001): 400 nA and 440 nA (2×) and 200 nA and 500 nA and 110 nA and 350 nA and 300 nA

Molecule: isoeugenol
- Raw data (Responses in nA), compounds of blend Alcohols 2 (AaegOR15): 0.0 nA (5×) and 10.0 nA (2×) and 20.0 nA (3×)
- Raw data (Responses in nA), unitary compounds of Indoles 1, Alcohols 1, Alcohols 3 (AaegOR13): 0.0 nA and 110.0 nA and 25.0 nA and 40.0 nA and 35.0 nA (2×) and 15.0 nA
- Raw Data (Responses in nA), Alcohols 3 unitary compounds (AaegOR28): 0 nA
